Experimental data taken from PubChem BioAssay (NCI).
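Assay format: 96-well plates, 48-hour exposure. TGI denotes the concentration required for complete inhibition of growth.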

Assays:
Test in all cases: DTP human tumour cell line panel, 48 h
ACHN renal = system: ACHN renal
SK-MEL-2 melanoma = system: SK-MEL-2 melanoma
PC-3 prostate = system: PC-3 prostate
MDA-N = system: MDA-N
COLO 205 colon = system: COLO 205 colon
SF-539 CNS = system: SF-539 CNS
CAKI-1 renal = system: CAKI-1 renal
UACC-62 melanoma = system: UACC-62 melanoma
MDA-MB-435 = system: MDA-MB-435
MALME-3M melanoma = system: MALME-3M melanoma
LOX IMVI melanoma = system: LOX IMVI melanoma
HL-60(TB) leukemia = system: HL-60(TB) leukemia
KM12 colon = system: KM12 colon
HCT-15 colon = system: HCT-15 colon
HT29 colon = system: HT29 colon
M14 melanoma = system: M14 melanoma
SNB-19 CNS = system: SNB-19 CNS

SMILES | TGI (ACHN renal) [µM] | TGI (SK-MEL-2 melanoma) [µM] | TGI (PC-3 prostate) [µM] | TGI (MDA-N) [µM] | TGI (COLO 205 colon) [µM] | TGI (SF-539 CNS) [µM] | TGI (CAKI-1 renal) [µM] | TGI (UACC-62 melanoma) [µM] | TGI (MDA-MB-435) [µM] | TGI (MALME-3M melanoma) [µM] | TGI (LOX IMVI melanoma) [µM] | TGI (HL-60(TB) leukemia) [µM] | TGI (KM12 colon) [µM] | TGI (HCT-15 colon) [µM] | TGI (HT29 colon) [µM] | TGI (M14 melanoma) [µM] | TGI (SNB-19 CNS) [µM]
Nc1nccc(NCC2(CO)CC(OCc3ccccc3)C2)n1 (stereo not drawn) | > 100 | > 100 | > 100 | > 100 | > 100 | > 100 | > 100 | > 100 | > 100 | > 100 | > 100 | > 100 | > 100 | > 100 | > 100 | – | –
COc1cc(C(=O)Oc2c(C(C)=O)sc3c2c(=O)n(-c2ccccc2)c(=S)n3-c2ccccc2)cc(OC)c1OC | 66 | – | 48.8 | 57 | 30.6 | 32.5 | 76.5 | 47.6 | 54.8 | 27.8 | 40.1 | 49.7 | 50.8 | 44.1 | 32.8 | 32.9 | 68
FC(F)(F)c1ccc2c(c1)nc1n2C(c2c(Cl)cccc2Cl)SC1 (stereo not drawn) | 40.3 | 40.8 | 37.9 | 36.8 | – | 43 | 35 | 34.1 | 41.4 | 42.1 | > 100 | 67.5 | 27.2 | 50.9 | 31.9 | 36.9 | 48.7
COc1ccc(/C=C2/C(=O)N(C(=O)c3ccccc3O)N=C2C)cc1 | > 100 | > 100 | > 100 | > 100 | > 89.2 | 2.2 | 51 | > 100 | > 100 | – | > 46.6 | 9.87 | > 100 | 1.24 | > 100 | > 100 | > 100
CCOC(=O)C(=CNc1ccc(N(C2=NCC(C)S2)c2ccc(F)c(Cl)c2)cc1)C(=O)OCC (stereo not drawn) | 39.8 | 43.7 | 50.9 | 43.1 | 33.3 | 46.4 | > 100 | – | 55.9 | 39.4 | 34.5 | 52.9 | 33.6 | 36.1 | 34.7 | 35.4 | 54.5
CC1(C)CC(=O)c2c(nc3c(ccc4ccccc43)c2-c2ccc(NC(=O)CCC(=O)Nc3ccc(-c4c5c(nc6c4ccc4ccccc46)CC(C)(C)CC5=O)cc3)cc2)C1 | > 100 | > 100 | > 100 | > 100 | > 100 | > 100 | > 100 | > 100 | > 100 | – | > 100 | > 100 | > 100 | > 100 | > 100 | > 100 | > 100
O=C1/C(=C\c2ccc(Br)cc2)CCCc2ccccc21 | 30.6 | 39.2 | 55.4 | 47 | 31.8 | 43.1 | 68.7 | 26.5 | 61.5 | – | 29.9 | 69 | 29 | 24.8 | 30.4 | > 100 | 32.6
O=c1[nH]ncc2[nH]c3c4ccccc4ccc3c12 | > 100 | – | > 100 | > 100 | 96.1 | > 100 | > 100 | – | 62.4 | > 100 | > 100 | > 100 | > 100 | 39.6 | > 100 | > 100 | –
CCCCc1ccc(-n2sc3ncc(-c4ccccc4)cc3c2=O)cc1 | > 100 | > 100 | > 100 | > 100 | > 100 | – | > 100 | > 100 | > 100 | – | > 100 | > 100 | > 100 | > 100 | – | > 100 | > 100
Oc1ccc(/C=C/c2cccc(/C=C/c3ccc(O)c(O)c3)n2)cc1O | 18.7 | 32.5 | > 100 | 20.5 | 28.9 | 9.39 | 90.5 | 18.6 | 28 | – | 21.7 | 13.4 | 36.2 | > 100 | 24.5 | 16.9 | 18.8
Cc1ccc(S(=O)(=O)CNC(=O)C(O)(O)C(F)(F)F)cc1 | – | > 100 | > 100 | > 100 | > 100 | > 100 | > 100 | > 100 | > 100 | > 100 | > 100 | > 100 | > 100 | > 100 | > 100 | > 100 | > 100
O=C(O)c1nc2ccc(C(F)(F)F)cc2nc1Nc1ccc(Cl)c(Cl)c1 | 49.7 | 11.2 | 15.8 | 25.3 | 25.7 | – | 30.6 | 18 | 19.1 | 31 | 21.5 | 21.9 | 20.5 | 22.6 | 27.1 | – | 10.9
O=C(c1ccccc1)N1C(=O)N(c2ccccc2)C(=Nc2ccccc2)C1=Nc1ccccc1 | > 100 | > 100 | > 100 | > 100 | > 100 | > 100 | > 100 | 31.8 | > 100 | > 100 | > 100 | > 100 | > 100 | > 100 | > 100 | – | > 100
N#Cc1c(=O)c2ccccc2n2ccccc12 | > 100 | 90.8 | > 100 | > 100 | > 100 | – | > 100 | > 100 | > 100 | > 100 | > 100 | > 100 | > 100 | > 100 | > 100 | – | > 100
CC(O)c1cc2c(s1)C(=O)c1c(C(C)O)csc1C2=O (stereo not drawn) | 1.38 | 0.292 | 0.514 | 0.0483 | 2.58 | 0.449 | 1.01 | 0.183 | 0.183 | 0.115 | 1.53 | 0.0415 | 1.08 | 0.422 | 2.7 | – | 1.08
